Laboratory results taken from US4767770A, “Method of inhibiting aromatase” (Eli Lilly and Company, priority 1984, dated 1988).
Like-named read-outs stand apart in the source and are kept apart here.

Columns and labels:
[1] = target: T1, aromatase (Rattus norvegicus, UniProt P22443); assay: biochemical
T1 sequence (P22443 1-508): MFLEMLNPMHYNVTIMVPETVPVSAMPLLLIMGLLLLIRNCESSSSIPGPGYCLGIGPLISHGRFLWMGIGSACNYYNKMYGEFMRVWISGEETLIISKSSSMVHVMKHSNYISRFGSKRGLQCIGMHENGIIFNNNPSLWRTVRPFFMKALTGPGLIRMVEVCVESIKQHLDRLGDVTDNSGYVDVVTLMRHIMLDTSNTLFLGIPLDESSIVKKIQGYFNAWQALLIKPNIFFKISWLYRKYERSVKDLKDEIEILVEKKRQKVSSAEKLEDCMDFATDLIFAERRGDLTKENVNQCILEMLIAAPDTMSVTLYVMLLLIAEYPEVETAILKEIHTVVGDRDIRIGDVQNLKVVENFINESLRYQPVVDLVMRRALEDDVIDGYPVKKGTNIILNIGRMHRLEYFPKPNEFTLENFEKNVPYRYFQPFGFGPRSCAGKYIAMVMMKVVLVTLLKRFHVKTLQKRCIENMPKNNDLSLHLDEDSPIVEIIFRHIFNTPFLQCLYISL
Protocol: In this test system, ovarian microsomes are obtained from rats treated with pregnant mares serum gonadotropin. Test compounds are added to reaction vials containing 0.1 μM 4-androstene-3,17-dione, 100,000 dpm 1,2[^3 H]-androstenedione, the microsomes and a NADPH generating system. The concentrations of the inhibitors tested ranged between 0.005 and 10 μM.

[2] = test system: estrogen synthesis (aromatization); uterus; assay: Estrogen Synthesis Inhibition in Rats: uterine weight of testosterone propionate-treated immature rats; assay type: in vivo, immature female Wistar rats; details: 7 days
Protocol: Immature female Wistar rats (45-55 grams) were divided into control and test groups of 2-8 animals each. Test compounds were administered for seven days as a component of the diet. Control animals received diet without the test compound. Beginning on the fourth day of the test, all animals treated with the test compound and one half of the control animals were given a subcutaneous injection of 1.0 mg of testosterone propionate in corn oil. The remaining control animals received only an equivalent volume of corn oil. On the seventh day of the test, rats treated with testosterone propionate were injected subcutaneously with 100 μCi of [^3 H]-testosterone in 50 μl of 3:1 (v/v) saline-ethanol.
After two hours, the animals were killed by decapitation. Uteri were isolated, trimmed of extraneous connective tissue, and weighed. […] In the control animals treated with testosterone propionate, estrogens produced by aromatization stimulated the uterus resulting in an increase in weight.
*ppm in feed. 300 ppm corresponds to approximately 30 mg/kg/day; 200 ppm
corresponds to approximately 20 mg/kg/day; 30 ppm corresponds to
approximately 3 mg/kg/day.

[3] = test system: estrogen synthesis (ovarian estradiol, estrone, estriol); assay: Estrogen Synthesis Inhibition in Rats: ovarian steroid concentration after [3H]-testosterone; assay type: in vivo, immature female Wistar rats; details: 7 days
Protocol: Test compounds were administered for seven days as a component of the diet. Control animals received diet without the test compound. Beginning on the fourth day of the test, all animals treated with the test compound and one half of the control animals were given a subcutaneous injection of 1.0 mg of testosterone propionate in corn oil. The remaining control animals received only an equivalent volume of corn oil.
The ovarian steroids were extracted with 1.5 ml of 9:1 (v/v) toluene/ethanol to which had been added 25 to 100 mcg each of unlabelled estradiol, estriol, and estrone, and approximately 1000 dpm of [^14 C]-estradiol. The samples were vortexed, centrifuged at 500×g for 10 minutes, and the organic phase was transferred to a conical vial. Two additional extractions were performed on the residue in the same way. The pooled organic extracts were evaporated for subsequent thin-layer chromatography.
Ovarian proteins were precipitated by the addition of 5.0 ml of ethanol to the remaining aqueous phase. After an overnight incubation at 4° C., the samples were centrifuged at 1500×g for 10 minutes. The supernatant was discarded and the pellet was dissolved in 0.3N potassium hydroxide.
The organic residue from each above extraction was redissolved in 9:1 (v/v) dichloromethane/methanol. The solution of each sample was applied to separate silica gel thin layer chromatography plates which contained a fluorescent indicator. The plates were developed in the first dimension with 160:38:1.5:0.5 (v/v/v/v) dichloromethane/ethyl acetate/methanol/acetic acid to within 3 cm of the top of the plate. After air-drying, the plate was developed in the second dimension with 180:19:1 (v/v/v) dichloromethane/methanol/ammonium hydroxide.
The spots were scraped from the plate using a glass wool plugged Pasteur pipet attached to a vacuum line. The steroids were eluted directly into scintillation vials by the addition of 0.2 ml of dichloromethane followed by two washes each of 2.0 ml of methanol. The organic solvent was evaporated and 10.0 ml of scintillation fluid (Beckman Ready Solv-NA) was added to the vials. Samples were analyzed by liquid scintillation spectrometry. Corrections were made based on the recoveries of the [^14 C]-steroid. Steroid concentrations are expressed as femtomoles per milligram protein.

[4] = test system: DMBA-induced mammary tumors; assay: DMBA-induced Mammary Tumor Inhibition; assay type: in vivo, female Sprague-Dawley rats; details: Test I, 300 ppm in diet (approx. 30 mg/kg/day), 5 weeks
Protocol: Mammary tumors were produced in female Sprague-Dawley rats which were 50-60 days old by the gavage administration of 20 mg of 7,12-dimethylbenz[a]anthracene (DMBA). About six weeks after DMBA administration, the mammary glands were palpated at weekly intervals for the appearance of tumors. Whenever one or more tumors appeared and were measurable in an animal, that animal was selected for experimentation. […] Each control and test group contained 8 animals. The test compound was administered mixed into the food at a concentration of 300 ppm (corresponding to an appropriate daily dose of 30 mg/kg). Every experiment included a group of control rats having tumors and were given food without the compound admixed. […] The area of each tumor was calculated by multiplying the shortest and longest diameters of the tumor. The treatment and measurement of animals continued for 4-5 weeks at which time the final areas of the tumors were determined. For each compound (and control) at each dose level, the change in the mean tumor area was determined.
*dosed in the diet. 300 ppm corresponds to approximately 30 mg/kg/day.

[5] = rat ovarian microsomes, substrate (androstenedione) 0.1 μM
[6] = Test IV, 200 ppm in feed (approx. 20 mg/kg/day), testosterone-treated control 213.5
[7] = Test IV, 200 ppm in feed (approx. 20 mg/kg/day), testosterone-treated control 0.14
[8] = Test IV, 200 ppm in feed (approx. 20 mg/kg/day), testosterone-treated control 0.24
[9] = Test IV, 200 ppm in feed (approx. 20 mg/kg/day), testosterone-treated control 1.98

In the case of `Fc1ccc(N(Cc2cccnc2)C2=NCCS2)c(F)c1` [N--(2,4-difluorophenyl)-N--(4,5-dihydro-2-thiazolyl)-3-pyridinemethanamine], the EC50 [1, 5] is reported as 28 nM, the “Mean Uterine Weight” value ([2]; Test II, 30 ppm in feed (approx. 3 mg/kg/day), testosterone-treated control 176.7) is reported as 140.0 mg and the “Mean Uterine Weight” value ([2]; Test II, 300 ppm in feed (approx. 30 mg/kg/day), value marked + (p < 0.05 vs testosterone-treated control, 176.7)) is reported as 104.5 mg. The “Mean Steroid Concentration, estrone” value ([3]; Test II, 30 ppm in feed (approx. 3 mg/kg/day), testosterone-treated control 0.64) was 0.65 femtomoles per milligram of protein, the “Mean Steroid Concentration, estriol” value ([3]; Test II, 30 ppm in feed (approx. 3 mg/kg/day), testosterone-treated control 1.98) was 1.56 femtomoles per milligram of protein and the “Mean Steroid Concentration, estradiol” value ([3]; Test II, 30 ppm in feed (approx. 3 mg/kg/day), testosterone-treated control 2.07) was 1.27 femtomoles per milligram of protein. For the same molecule, the “Mean Steroid Concentration, estriol” value ([3]; Test II, 300 ppm in feed (approx. 30 mg/kg/day), testosterone-treated control 1.98) was 1.18 femtomoles per milligram of protein, the “Mean Steroid Concentration, estrone” value ([3]; Test II, 300 ppm in feed (approx. 30 mg/kg/day), value marked + (p < 0.05 vs testosterone-treated control, 0.64)) was 0.31 femtomoles per milligram of protein and the “Mean Steroid Concentration, estradiol” value ([3]; Test II, 300 ppm in feed (approx. 30 mg/kg/day), value marked + (p < 0.05 vs testosterone-treated control, 2.07)) was 1.05 femtomoles per milligram of protein. For the same molecule, the “Mean Tumor Area, Start” value ([4]; baseline, control 73.9) was 83.6 mm^2 and the “Mean Tumor Area, Finish” value ([4]; control 1140.0) was 536.0 mm^2.

`Clc1ccc(CN(Cc2cccnc2)C2=NCCS2)c(Cl)c1` [N--(4,5-dihydro-2-thiazolyl)-N--(2,4-dichlorobenzyl)-3-pyridinemethanamine] gave an EC50 [1] of 118 nM.

For `Brc1ccc(N(Cc2cccnc2)C2=NCCS2)cc1` [N--(4,5-dihydro-2-thiazolyl)-N--(4-bromophenyl)-3-pyridinemethanamine], the EC50 [1] was 110 nM.

For `CC(c1ccc(F)cc1)N(C1=NCCS1)C(C)c1cccnc1` (stereo not drawn) [N--(4,5-dihydro-2-thiazolyl)-N--[1-(4-fluorophenyl)ethyl]-α-methyl-3-pyridinemethanamine], the EC50 [1] was 3300 nM.

With `Clc1ccc(CCN(Cc2cccnc2)C2=NCCS2)cc1` [N--(4,5-dihydro-2-thiazolyl)-N--[2-(4-chlorophenyl)ethyl]-3-pyridinemethanamine] the EC50 [1, 5] was 900 nM.

With `CSc1ccc(N(Cc2cccnc2)C2=NCCS2)cc1` [N--(4,5-dihydro-2-thiazolyl)-N--[4-(methylthio)phenyl]-3-pyridinemethanamine] the EC50 [1, 5] was 3200 nM.

For `c1ccc(N(Cc2cccnc2)C2=NCCS2)cc1` [N--(4,5-dihydro-2-thiazolyl)-N--phenyl-3-pyridinemethanamine], the EC50 [1] was 460 nM.

`Cc1cc(Cl)ccc1N(Cc1cccnc1)C1=NCCS1` [N--(4-chloro-2-methylphenyl)-N--(4,5-dihydro-2-thiazolyl)-3-pyridinemethanamine] was tested, and the EC50 [1, 5] was 440 nM.

`Clc1ccc(N(Cc2cccnc2)C2=NCCCS2)cc1` [N--(4-chlorophenyl)-5,6-dihydro-N--(3-pyridylmethyl)-4H--1,3-thiazin-2-amine] was tested, and the EC50 [1] was 72 nM, the “Mean Uterine Weight” value [2, 6] was 193.0 mg and the “Mean Steroid Concentration, estriol” value [3, 7] was 0.04 femtomoles per milligram of protein. For the same molecule, the “Mean Steroid Concentration, estrone” value [3, 8] was 0.11 femtomoles per milligram of protein and the “Mean Steroid Concentration, estradiol” value [3, 9] was 1.54 femtomoles per milligram of protein.

`Clc1ccc(N(Cc2cccnc2)C2=NCCO2)cc1` [N--(4-chlorophenyl)-N--(4,5-dihydro-2-oxazolyl)-3-pyridinemethanamine] showed an EC50 [1] of 80 nM.

`Clc1ccc(N(Cc2cnccn2)C2=NCCS2)cc1` [N--(4-chlorophenyl)-N--(4,5-dihydro-2-thiazolyl)-2-pyrazinemethanamine] gave an EC50 [1] of 3130 nM.

`Clc1ccc(N(Cc2cncnc2)C2=NCCS2)cc1` [N--(4-chlorophenyl)-N--(4,5-dihydro-2-thiazolyl)-5-pyrimidinemethanamine] gave an EC50 [1] of 610 nM.

`CC(c1cccnc1)N(C1=NCCS1)c1ccc(Cl)cc1` (stereo not drawn) [N--(4-chlorophenyl)-N--(4,5-dihydro-2-thiazolyl)-α-methyl-3-pyridinemethanamine] was tested, and the EC50 [1, 5] was 2350 nM.

`CC1CSC(N(Cc2cccnc2)c2ccc(Cl)cc2)=N1` (centres unmarked) [N--(4-chlorophenyl)-N--(4,5-dihydro-4-methyl-2-thiazolyl)-3-pyridinemethanamine] was tested, and the “Mean Uterine Weight” value ([2]; Test III, 30 ppm in feed (approx. 3 mg/kg/day), testosterone-treated control 220.0) was 225.5 mg, the “Mean Uterine Weight” value ([2]; Test III, 300 ppm in feed (approx. 30 mg/kg/day), testosterone-treated control 220.0) was 187.6 mg and the “Mean Steroid Concentration, estrone” value ([3]; Test III, 30 ppm in feed (approx. 3 mg/kg/day), testosterone-treated control 1.02) was 1.14 femtomoles per milligram of protein. For the same molecule, the “Mean Steroid Concentration, estradiol” value ([3]; Test III, 30 ppm in feed (approx. 3 mg/kg/day), testosterone-treated control 1.31) was 2.40 femtomoles per milligram of protein, the “Mean Steroid Concentration, estriol” value ([3]; Test III, 30 ppm in feed (approx. 3 mg/kg/day), testosterone-treated control 1.32) was 1.56 femtomoles per milligram of protein and the “Mean Steroid Concentration, estrone” value ([3]; Test III, 300 ppm in feed (approx. 30 mg/kg/day), testosterone-treated control 1.02) was 0.62 femtomoles per milligram of protein. For the same molecule, the “Mean Steroid Concentration, estradiol” value ([3]; Test III, 300 ppm in feed (approx. 30 mg/kg/day), testosterone-treated control 1.31) was 0.95 femtomoles per milligram of protein and the “Mean Steroid Concentration, estriol” value ([3]; Test III, 300 ppm in feed (approx. 30 mg/kg/day), testosterone-treated control 1.32) was 0.37 femtomoles per milligram of protein.

`CC1CSC(N(c2ccc(Cl)cc2)C(C)c2cccnc2)=N1` (stereo not drawn) [N--(4-chlorophenyl)-N--(4,5-dihydro-4-methyl-2-thiazolyl)-α-methyl-3-pyridinemethanamine] was tested, and the EC50 [1, 5] was 1950 nM.

In the case of `CC(c1ccc(Cl)cc1)N(Cc1cccnc1)C1=NCCS1` (centres unmarked) [N--[1-(4-chlorophenyl)ethyl]-N--(4,5-dihydro-2-thiazolyl)-3-pyridinemethanamine], the EC50 [1] is reported as 48 nM, the “Mean Uterine Weight” value [2, 6] is reported as 185.8 mg and the “Mean Steroid Concentration, estriol” value [3, 7] is reported as 0.04 femtomoles per milligram of protein. The “Mean Steroid Concentration, estrone” value [3, 8] was 0.13 femtomoles per milligram of protein and the “Mean Steroid Concentration, estradiol” value [3, 9] was 1.01 femtomoles per milligram of protein.
